From PubChem BioAssay (NCI)
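1) Cells in 96-well plates. 2) Compound, 48 h, 5 concentrations. 3) Linear interpolation between surrounding doses. 4) Unreached endpoint = highest concentration. Definition used: TGI = concentration required for complete inhibition of growth.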

System: SN12K1 renal
Assay: NCI-60 cell line screen, 48 h

COC(=O)NC1C(C)OC(OC2C/C=C(/C)C3C=CC4C(OC5CC(OC6CCC(OC7CC(O)C(OC8CCC(O)C(C)O8)C(C)O7)C(C)O6)C(OC(C)=O)C(C)O5)C(C)CC(C)C4C3(C)/C(O)=C3/C(=O)OC4(CC(C=O)=CC(O)C4/C=C\2C)C3=O)CC1(C)[N+](=O)[O-] (stereo unspecified)
TGI: 753 nM
